{"source": "patent US4049795A", "about": "“Treatment of hemorrhagic shock” (priority 1974, dated 1977)", "key": {"[1]": {"tested_on": "response to adrenalin, noradrenalin and serotonin", "experiment": "Response to adrenalin, noradrenalin and serotonin in the dog", "type": "in vivo", "settings": "in the presence of dihydroxyacetone"}, "glucidic metabolism": {"tested_on": "glucidic metabolism", "experiment": "Glucidic metabolism under intravenous perfusion in rabbits (lactacidemia, pyruvicemia, glycemia)", "type": "in vivo, rabbit", "procedure": "These tests were carried out on rabbits weighing an average of 2.500 kg.\nA trachetomy was carried out under local anaesthesia with procaine. […] A saphenous vein and the two femoral arteries were catheterized under local anaesthesia in order to register the blood pressure by a manometer and to take blood samples; a jugular vein was catheterized to the base of the skull to sample cerebral venous blood.\nThe results obtained were compared with those obtained following a perfusion carried out in the same way with sodium d,l-lactate at a dose of 40 mg/kg/min.\nThe glycemia was measured by the enzymatic method in the arterial and cerebral venus blood. The samples were taken before the perfusion, at the end of the perfusion, and at 30 minutes and 60 minutes after perfusion."}, "[2]": {"tested_on": "hepatic and renal circulation"}, "rats [3]": {"tested_on": "rats", "experiment": "Toxicity, intraperitoneal injection in rats"}, "electro-encephalograms": {"tested_on": "electro-encephalograms", "settings": "in vivo"}, "cerebral lactate edema": {"tested_on": "cerebral lactate edema", "settings": "edema induced by mechanical, biological or pharmacological means; cited from earlier work"}, "rats [4]": {"tested_on": "rats", "experiment": "Toxicity, oral administration in rats", "type": "in vivo, rat", "settings": "six rats"}, "[5]": {"tested_on": "erythrocytic aggregation of the microcirculation (sludge)", "experiment": "Erythrocytic aggregation of the microcirculation (sludge), mesenteric circulation of the rabbit", "type": "in vivo", "settings": "independent of the experimental cause of sludge", "procedure": "This phenomenon was observed by using the technique developed by […] and BRUE (Agressologie, Vol. 4, No. 3, p. 299 ff of 1963): it entails a microscopic observation of the mesenteric circulation of the rabbit. […] The hemorrhagic shock was obtained by the […] method. The perfusion of adrenalin was carried out at a dose of 10 mg/kg/min. for 10 to 15 minutes. The perfusion of lactate was effected at a dose of 0.39 g/min for 15 minutes. The perfusion of ethyl alcohol (in a 20% aqueous solution) was carried out at a dose of 20 ml of solution (i.e. 4 ml of absolute alcohol) for 15 minutes."}, "hemorrhagic shock": {"tested_on": "hemorrhagic shock", "experiment": "Irreversible hemorrhagic shock (WIGGERS) in dogs"}, "[6]": {"tested_on": "cerebral anoxemia by clamping", "experiment": "Cerebral anoxemia by clamping in rabbits", "type": "in vivo, rabbit", "settings": "1 g/kg intravenously", "procedure": "The tests were done on rabbits weighing an average of 2.5 kg. The fastening of the cranial electrodes was done under local anaesthesia with procaine, as was the placing of the catheters in a femoral artery to record the blood pressure. The tracheotomies and tracheal intubations were also done under local anaesthesia using procaine. The temperature was maintained at around 38° C. Three types of anoxemia were investigated; 1. Elective cerebral anoxemia by stopping cerebral circulation (anoxemia by clamping): Artificial ventilation was set up by an apparatus allowing constant volume and speed of respiration. An upper sternatomy of the manubrium was carried out; the left sub-[…] artery, the left carotid artery and the right trucus brachiocephalicus were isolated. The clamps were then put into place according to the technique described by […] and LABORIT (Conference of d Agressologie Cycle, Vol. 1, p. 15 ff of 1959). The artificially ventilated animal preserved good peripheral cardiovascular dynamics during the ischemia and supported 120 seconds of clamping without severe hypotension. 3. Nitrogen anoxemia: The animal was curarized and artifically ventilated as indicated above. Anoxemia was obtained by connecting a nitrogen gasbag to the air intake of the BEAUDOUIN apparatus; general non-hypercapnic anoxemia occurred. Air was […] seconds. […] A latency of 30 minutes was observed before anoxemia was caused."}, "[7]": {"experiment": "Tolerance, intraperitoneal route, rabbits", "settings": "rabbit, in vivo, ip, single dose, read-out: tolerated single dose", "source_text": "Rabbits tolerate a single dose of 8 g/kg by the intraperitoneal route."}, "Rabbit atrium": {"tested_on": "Rabbit atrium", "experiment": "Isolated rabbit atrium", "source_text": "The technique used for this study was the same as that described above for the ileum of the rabbit, but replacing the ileum with bled rabbit atrium. The preservation liquid used as LOCKE's liquid."}, "Nitrogen anoxemia": {"tested_on": "Nitrogen anoxemia", "experiment": "Nitrogen anoxemia in rabbits", "type": "in vivo, rabbit", "procedure": "(§1) The tests were done on rabbits weighing an average of 2.5 kg. The fastening of the cranial electrodes was done under local anaesthesia with procaine, as was the placing of the catheters in a femoral artery to record the blood pressure. The tracheotomies and tracheal intubations were also done under local anaesthesia using procaine. The temperature was maintained at around 38° C. Three types of anoxemia were investigated; 3. Nitrogen anoxemia: The animal was curarized and artifically ventilated as indicated above. Anoxemia was obtained by connecting a nitrogen gasbag to the air intake of the BEAUDOUIN apparatus; general non-hypercapnic anoxemia occurred. Air was […] seconds. […] A latency of 30 minutes was observed before anoxemia was caused."}, "Hypercapnic anoxemia": {"tested_on": "Hypercapnic anoxemia", "experiment": "Hypercapnic anoxemia in rabbits", "type": "in vivo, rabbit", "procedure": "as §1, with “investigated; 2. Hypercapnic anoxemia: The above-mentioned artificial ventilation of the animal after curarization was stopped. Stopping of the cerebral electrogenesis was obtained after an average of 120 seconds.” for “investigated;”"}, "[8]": {"settings": "1 g/kg intravenously, prior perfusion"}}, "data": [{"smiles": "O=C(CO)CO", "note": "[dihydroxyacetone]", "values": [{"measurement": "response to adrenalin, noradrenalin and serotonin", "setting": "[1]", "result": "remained unchanged"}, {"measurement": "lactacidemia compared with perfusion of sodium lactate", "setting": "glucidic metabolism; 66 mg/kg over 15 minutes", "result": "values lower than those obtained after a perfusion of sodium lactate"}, {"measurement": "lactacidemia at 30 and 60 minutes after the end of perfusion", "setting": "glucidic metabolism; 30 and 60 minutes after perfusion", "result": "continued to increase at 30 and 60 minutes after the end of perfusion"}, {"measurement": "glycemia", "setting": "glucidic metabolism; after a perfusion", "result": "increased considerably"}, {"measurement": "lactacidemia when perfusion of sodium lactate was followed by perfusion of dihydroxyacetone", "setting": "glucidic metabolism; after sodium lactate", "result": "a progressive fall in the lactacidemia"}, {"measurement": "pyruvicemia", "setting": "glucidic metabolism; rabbit, intravenous perfusion", "result": "increased in parallel with lactacidemia"}, {"measurement": "blood CO2 pressure", "setting": "[2]; in vivo", "result": "stable"}, {"measurement": "blood pH without neutralisation of the solution", "setting": "[2]; in vivo", "result": "a slight fall in the blood pH"}, {"measurement": "average pressure and pulse pressure", "setting": "[2]; intravenous perfusion of 2 g/kg", "result": "A slight increase in the average pressure and a widening of the pulse pressure"}, {"measurement": "hepatic and renal flows", "setting": "[2]; rapid perfusion, 1 g/kg", "result": "variably increased"}, {"measurement": "hepatic flow", "setting": "[2]; rapid perfusion, 1 g/kg", "result": "nearly doubled"}, {"measurement": "animals died, repeated injection every 2 hours", "setting": "rats [3]; 4.5 g/kg every 2 hours, third group of 5 rats", "result": 3, "unit": "animals"}, {"measurement": "maximum non-lethal dose", "setting": "rats [3]; intraperitoneal injection, rats", "result": "about 7.50 g/kg"}, {"measurement": "formation of slow waves", "setting": "electro-encephalograms", "result": "does not seem to favour the formation of slow waves"}, {"measurement": "protection against cerebral lactate edema", "setting": "cerebral lactate edema", "result": "will protect a rat against cerebral lactate edema"}, {"measurement": "animals died at oral dose of 80 g/kg", "setting": "rats [4]", "result": "one"}, {"measurement": "intravascular aggregation (sludge)", "setting": "[5]", "result": "caused the intravascular aggregation to disappear"}, {"measurement": "mesenteric capillary circulation", "setting": "[5]", "result": "re-established the mesenteric capilliary circulation"}, {"measurement": "duration of the rise in blood pressure", "setting": "hemorrhagic shock; 4 to 7 g/kg", "result": "maintained for several hours"}, {"measurement": "arterial and venous CO2 pressures and pH in hemorrhagic shock", "setting": "hemorrhagic shock; 4 to 7 g/kg over about 3 hours", "result": "developed in a similar manner to those existing in the control animals"}, {"measurement": "glycemia in hemorrhagic shock", "setting": "hemorrhagic shock; 4 to 7 g/kg over about 3 hours", "result": "rose above its initial level"}, {"measurement": "kalemia in hemorrhagic shock", "setting": "hemorrhagic shock; 4 to 7 g/kg over about 3 hours", "result": "rose above that of the control animals"}, {"measurement": "lactacidemia in hemorrhagic shock", "setting": "hemorrhagic shock; 4 to 7 g/kg over about 3 hours", "result": "reached values higher than in the control animals"}, {"measurement": "pyruvicemia in hemorrhagic shock", "setting": "hemorrhagic shock; 4 to 7 g/kg over about 3 hours", "result": "continued to rise"}, {"measurement": "average difference in blood pressure between end of reinjection of effused blood and after the perfusion", "setting": "hemorrhagic shock; 4 to 7 g/kg, average", "result": 21.5, "unit": "mm Hg"}, {"measurement": "blood pressure elevation or restoration compared with hypertonic glucose", "setting": "hemorrhagic shock; comparison in words", "result": "appears to be more active than hypertonic glucose"}, {"measurement": "effect on the blood pressure in hemorrhagic shock", "setting": "hemorrhagic shock; irreversible shock", "result": "favorable effect on the blood pressure"}, {"measurement": "recuperation latency, anoxemia by clamping", "setting": "[6]", "result": "no improvement at all"}, {"measurement": "recuperation time, anoxemia by clamping", "setting": "[6]", "result": "no improvement"}, {"measurement": "survival time, anoxemia by clamping", "setting": "[6]; prior perfusion", "result": "minor"}, {"measurement": "MTD", "setting": "[7]", "result": 8000, "unit": "mg/kg"}, {"measurement": "amplitude of atrium", "setting": "Rabbit atrium; 800 mg per 75 ml of preservation liquid", "result": "a slight increase in amplitude"}, {"measurement": "effect on inhibitory action of sodium lactate added subsequently", "setting": "Rabbit atrium; dihydroxyacetone 800 mg per 75 ml, then 600 mg of sodium lactate", "result": "a slight opposition to its inhibitory action"}, {"measurement": "action on the lactate when it was added first", "setting": "Rabbit atrium; lactate added first", "result": "no action"}, {"measurement": "chronotropic action", "setting": "Rabbit atrium; rabbit atrium", "result": "negative chronotropic action"}, {"measurement": "recuperation latency, nitrogen anoxemia", "setting": "Nitrogen anoxemia; 1 g/kg intravenously", "result": "a slight improvement"}, {"measurement": "recuperation time, nitrogen anoxemia", "setting": "Nitrogen anoxemia; 1 g/kg intravenously", "result": "no improvement"}, {"measurement": "survival time, nitrogen anoxemia", "setting": "Nitrogen anoxemia; [8]", "result": "minor"}, {"measurement": "blood pressure in nitrogen anoxemia", "setting": "Nitrogen anoxemia; anoxemia preceded by perfusion of dihydroxyacetone", "result": "maintained a high value"}, {"measurement": "recuperation latency, hypercapnic anoxemia", "setting": "Hypercapnic anoxemia; 1 g/kg intravenously", "result": "an improvement which was difficult to measure"}, {"measurement": "survival time, hypercapnic anoxemia", "setting": "Hypercapnic anoxemia; [8]", "result": "pronounced"}, {"measurement": "recuperation time, hypercapnic anoxemia", "setting": "Hypercapnic anoxemia; 1 g/kg intravenously, result in words", "result": "a clear improvement"}, {"measurement": "recuperation time, hypercapnic anoxemia", "setting": "Hypercapnic anoxemia; for 2 minutes of anoxemia", "result": "≤ 30", "unit": "s"}]}]}
